The record followed here is EPA's ToxValDB 9.5 (doi:10.2903/j.efsa.2010.1523).

One series deals with Coturnix japonica. The conditions noted are these: reproduction developmental.
The next series has as its system Rattus norvegicus. The settings on record: acute; oral; mortality.
In the next series the test system is Apis mellifera. The conditions noted are these: acute; duration: 48 hours; dermal; mortality.
For a further series, the system named is Tagia sp. The settings on record: acute; duration: 14 days; mortality.
For the next series, the system named is Canidae. The settings on record: chronic; duration: 1 years; oral; Dog Other; hematological.
Another series relates to Mus musculus. The conditions noted are these: acute; oral; mortality.
The test system of a further series is Daphnia magna. The conditions noted are these: chronic/long-term; duration: 21 days; reproduction.
The test system of another series is Colinus virginianus. The conditions noted are these: acute, oral, mortality.
The next series deals with Aphidius rhopalosiphi. The series is described as follows: LR50; higher = less toxic. The conditions noted are these: not reported; mortality.

≈ marks a conversion by molar mass, not a printed value. A value given as a limit tells only on which side of the number the result lay.

Usually NOAEL stands for the highest tested level that showed no adverse finding.

As for `Cc1cnc2c(C(=O)O)c(Cl)ccc2c1` [Quinmerac], the NOEC was found to be 173 mg/kg-day in the series on Coturnix japonica; 3.16 mg/L in the series on Oncorhynchus mykiss (chronic/long-term, duration: 28 days, growth); 100 mg/L in the series on Daphnia magna. The LD50 with Rattus norvegicus is above 5000 mg/kg-day; in the series on Apis mellifera, above 100 µg/piece; in the series with Mus musculus, above 5000 mg/kg-day; with Colinus virginianus, above 2000 mg/kg-day. Moreover, the LC50 in the series with Tagia sp. is above 1000 mg/kg; in the series on Oncorhynchus mykiss (acute, duration: 96 hours, mortality) it was 86.8 mg/L (≈ 392 µM); in the series with Colinus virginianus (diet), above 933 mg/kg-day. Also, the NOAEL with Canidae was determined as 7.9 mg/kg-day; in the series with Oryctolagus sp. (developmental, development), 30 mg/kg-day. The NOEL with Oryctolagus sp. (chronic) amounted to 100 mg/kg-day. Moreover, in the series on Aphidius rhopalosiphi, the LR50 was above 500 g/ha.
